# Source: patent US20070299139A1, “Lyophilisate Comprising N-Diaminomethylene-2-Methyl-4,5-Di(Methylsulfonyl)Benzamide” (priority 2004, published 2007)
# Experiment: Stability of the active compound in aqueous solution
# Format: physicochemical
# Conditions: hydrolyses
# Excerpt: The development of this active compound in intensive medicine requires that it is available in parenterally administrable form, best as aqueous solution.
structure (smiles),measurement,value
"Cc1cc(S(C)(=O)=O)c(S(C)(=O)=O)cc1C(=O)NC(=N)N [N-diaminomethylene-2-methyl-4,5-di(methylsulfonyl)benzamide]",stability in aqueous solution,not stable in aqueous solution
